Measured values as given in patent US10933063B2 (priority 2017, dated 2021).
Read-outs that look alike come from different tables or passages of the source.

Assays:
Btk [1] = biological target: Btk (Mus musculus (Mouse), UniProt P35991); assay: Btk occupancy in vivo (PBMCs or splenocytes, PCI-33380 labeling); conditions: 4 hours after dosing, Babc/L mice
Description: For analysis of Btk occupancy in Babc/L mice following oral dosing of compounds after 4 hours. Isolating peripheral blood mononuclear cells (PBMCs) with mouse peripheral blood separation kit (Hao Yang Biological Manufacture CO., LTD, Tianjin) were collected from Babc/L mice (1 ml blood from two mice). Spleens were processed to splenocytes followed by 5 min incubation in red blood cell lysing buffer (from mouse peripheral blood separation kit).

TEC = TEC (Homo sapiens (Human), UniProt P42680); assay: biochemical
ITK = ITK (Homo sapiens (Human), UniProt Q08881); assay: biochemical
LYN = LYN (Homo sapiens (Human), UniProt P07948); conditions: read-out: LYN IC50, [ATP]=20 μM
Description: (§1) Btk kinase activity was determined using a homogenous time resolved fluorescence (HTRF) methodology. Measurements were performed in a reaction volume of 15 μL using 384-well assay plates. Kinase enzyme, inhibitor, ATP and 1 μM peptide substrate were incubated in a reaction buffer compose of Hepes50 mM (pH7.0), NaN3 0.02%, BSA 0.01%, Orthocanadate 0.1 mM. […] For each compound, enzyme activity as measured at various concentrations of compound, Negative control reactions were performed in the absence of inhibitor in two replicates and eight no enzyme controls were used to determine baseline fluorescence levels.
(§2) For LYN assay, [ATP]=20 μM, LYN=0.12 n M. For LCK assay, [ATP]=20 μM, LCK=0.2 nM.

LCK = LCK (Homo sapiens (Human), UniProt P06239); conditions: read-out: LCK IC50; [ATP]=20 μM, LCK=0.2 nM
Description: as §1, §2

EGFR = EGFR (Homo sapiens (Human), UniProt P00533); assay: biochemical
BTK [2] = biological target: T1, BTK (Homo sapiens (Human), UniProt Q06187)
BTK [3] = biological target: T1, BTK; assay: biochemical

Sequence of EGFR (P00533 whole entry, looked up, species assumed): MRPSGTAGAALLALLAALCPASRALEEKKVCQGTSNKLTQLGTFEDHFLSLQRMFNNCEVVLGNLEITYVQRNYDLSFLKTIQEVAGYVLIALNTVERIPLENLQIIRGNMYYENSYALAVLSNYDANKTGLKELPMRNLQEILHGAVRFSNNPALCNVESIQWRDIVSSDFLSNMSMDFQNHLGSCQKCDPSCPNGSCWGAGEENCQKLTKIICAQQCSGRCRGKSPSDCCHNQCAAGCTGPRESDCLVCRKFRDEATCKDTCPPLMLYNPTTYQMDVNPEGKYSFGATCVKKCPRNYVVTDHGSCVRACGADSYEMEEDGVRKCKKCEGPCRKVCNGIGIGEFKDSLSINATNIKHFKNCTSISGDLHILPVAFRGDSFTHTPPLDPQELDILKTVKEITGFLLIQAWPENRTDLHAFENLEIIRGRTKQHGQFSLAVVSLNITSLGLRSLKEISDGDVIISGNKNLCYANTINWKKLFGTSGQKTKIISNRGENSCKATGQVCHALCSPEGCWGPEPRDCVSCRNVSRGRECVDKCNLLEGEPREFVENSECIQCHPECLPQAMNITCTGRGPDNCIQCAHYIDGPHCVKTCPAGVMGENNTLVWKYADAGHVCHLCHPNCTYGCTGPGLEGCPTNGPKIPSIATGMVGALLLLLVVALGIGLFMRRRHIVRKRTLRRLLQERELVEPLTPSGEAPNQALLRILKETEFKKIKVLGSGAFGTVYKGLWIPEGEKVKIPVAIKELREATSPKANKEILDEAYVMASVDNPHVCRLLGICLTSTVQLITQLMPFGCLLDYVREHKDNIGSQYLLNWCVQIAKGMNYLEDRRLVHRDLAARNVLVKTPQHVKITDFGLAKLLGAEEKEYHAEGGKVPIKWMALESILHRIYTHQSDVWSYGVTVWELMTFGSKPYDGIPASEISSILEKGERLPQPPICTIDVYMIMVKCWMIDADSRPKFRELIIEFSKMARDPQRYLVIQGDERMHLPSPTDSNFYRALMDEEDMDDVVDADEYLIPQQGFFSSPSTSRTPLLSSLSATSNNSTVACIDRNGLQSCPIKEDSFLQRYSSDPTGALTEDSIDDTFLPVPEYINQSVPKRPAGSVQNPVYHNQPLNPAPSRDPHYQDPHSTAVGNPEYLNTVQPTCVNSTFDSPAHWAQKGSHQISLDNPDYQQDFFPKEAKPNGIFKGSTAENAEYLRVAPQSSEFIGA
T1 sequence (Q06187 whole entry, looked up, species assumed): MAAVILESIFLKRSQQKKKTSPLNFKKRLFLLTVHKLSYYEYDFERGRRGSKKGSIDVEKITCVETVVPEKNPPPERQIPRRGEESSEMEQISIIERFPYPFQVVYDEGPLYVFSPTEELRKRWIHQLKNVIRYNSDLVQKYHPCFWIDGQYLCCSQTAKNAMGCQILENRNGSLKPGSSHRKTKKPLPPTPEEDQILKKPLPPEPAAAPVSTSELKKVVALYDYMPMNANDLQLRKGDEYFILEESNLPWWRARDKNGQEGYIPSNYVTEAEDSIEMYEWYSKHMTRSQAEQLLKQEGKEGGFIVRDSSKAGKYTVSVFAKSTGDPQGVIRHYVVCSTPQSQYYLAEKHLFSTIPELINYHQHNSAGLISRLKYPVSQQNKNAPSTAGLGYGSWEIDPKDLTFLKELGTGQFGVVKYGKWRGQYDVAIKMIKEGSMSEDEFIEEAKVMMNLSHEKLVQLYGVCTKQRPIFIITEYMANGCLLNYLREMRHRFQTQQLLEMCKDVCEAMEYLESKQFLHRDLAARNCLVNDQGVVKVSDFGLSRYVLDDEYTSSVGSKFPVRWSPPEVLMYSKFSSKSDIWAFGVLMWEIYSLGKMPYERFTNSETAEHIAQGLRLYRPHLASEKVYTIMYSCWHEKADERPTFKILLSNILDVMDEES
Sequence of LYN (P07948 whole entry, looked up, species assumed): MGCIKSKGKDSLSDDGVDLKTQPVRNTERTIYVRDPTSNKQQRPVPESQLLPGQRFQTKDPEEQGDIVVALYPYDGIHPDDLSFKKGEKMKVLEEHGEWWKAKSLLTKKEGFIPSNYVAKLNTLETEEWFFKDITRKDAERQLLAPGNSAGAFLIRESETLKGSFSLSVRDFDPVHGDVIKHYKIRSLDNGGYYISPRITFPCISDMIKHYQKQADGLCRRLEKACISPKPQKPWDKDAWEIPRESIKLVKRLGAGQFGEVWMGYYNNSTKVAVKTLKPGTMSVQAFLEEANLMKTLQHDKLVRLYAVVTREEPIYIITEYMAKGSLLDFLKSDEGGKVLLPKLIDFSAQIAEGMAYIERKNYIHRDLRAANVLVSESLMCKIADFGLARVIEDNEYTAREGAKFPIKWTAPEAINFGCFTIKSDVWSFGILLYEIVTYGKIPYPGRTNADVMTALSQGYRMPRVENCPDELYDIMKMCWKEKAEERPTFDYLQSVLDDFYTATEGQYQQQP
Sequence of LCK (P06239 whole entry, looked up, species assumed): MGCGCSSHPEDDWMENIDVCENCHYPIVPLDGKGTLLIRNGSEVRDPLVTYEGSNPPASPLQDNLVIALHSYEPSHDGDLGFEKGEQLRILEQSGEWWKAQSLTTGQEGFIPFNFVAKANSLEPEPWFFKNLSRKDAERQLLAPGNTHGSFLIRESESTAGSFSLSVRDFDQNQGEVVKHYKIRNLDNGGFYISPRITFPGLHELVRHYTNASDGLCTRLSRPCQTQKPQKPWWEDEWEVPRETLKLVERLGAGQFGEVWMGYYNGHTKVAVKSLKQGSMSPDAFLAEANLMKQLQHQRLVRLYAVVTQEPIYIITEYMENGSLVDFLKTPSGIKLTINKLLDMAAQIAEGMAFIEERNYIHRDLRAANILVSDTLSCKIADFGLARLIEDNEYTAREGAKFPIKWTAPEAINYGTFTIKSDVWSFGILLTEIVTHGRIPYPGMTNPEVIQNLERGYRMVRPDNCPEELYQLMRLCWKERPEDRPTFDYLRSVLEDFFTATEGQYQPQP
Sequence of Btk (P35991 whole entry, looked up): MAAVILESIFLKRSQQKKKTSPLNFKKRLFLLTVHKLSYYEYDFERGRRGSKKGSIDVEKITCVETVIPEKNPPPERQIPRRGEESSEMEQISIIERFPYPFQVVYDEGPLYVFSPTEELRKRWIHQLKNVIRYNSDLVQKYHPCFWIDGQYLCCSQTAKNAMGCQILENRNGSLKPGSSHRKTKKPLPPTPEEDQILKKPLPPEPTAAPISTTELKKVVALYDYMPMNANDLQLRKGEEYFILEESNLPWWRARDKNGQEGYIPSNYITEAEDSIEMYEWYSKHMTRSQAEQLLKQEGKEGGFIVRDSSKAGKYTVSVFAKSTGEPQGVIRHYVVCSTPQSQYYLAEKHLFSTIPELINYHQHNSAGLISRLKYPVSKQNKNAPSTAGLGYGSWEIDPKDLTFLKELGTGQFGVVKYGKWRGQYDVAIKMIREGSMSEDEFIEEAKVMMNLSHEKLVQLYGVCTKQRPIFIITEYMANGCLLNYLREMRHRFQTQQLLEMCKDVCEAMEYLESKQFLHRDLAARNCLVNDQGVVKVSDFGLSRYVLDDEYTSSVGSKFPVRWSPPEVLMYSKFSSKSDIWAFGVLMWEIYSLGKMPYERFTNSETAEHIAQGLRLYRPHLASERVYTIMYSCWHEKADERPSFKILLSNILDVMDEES
Sequence of ITK (Q08881 whole entry, looked up, species assumed): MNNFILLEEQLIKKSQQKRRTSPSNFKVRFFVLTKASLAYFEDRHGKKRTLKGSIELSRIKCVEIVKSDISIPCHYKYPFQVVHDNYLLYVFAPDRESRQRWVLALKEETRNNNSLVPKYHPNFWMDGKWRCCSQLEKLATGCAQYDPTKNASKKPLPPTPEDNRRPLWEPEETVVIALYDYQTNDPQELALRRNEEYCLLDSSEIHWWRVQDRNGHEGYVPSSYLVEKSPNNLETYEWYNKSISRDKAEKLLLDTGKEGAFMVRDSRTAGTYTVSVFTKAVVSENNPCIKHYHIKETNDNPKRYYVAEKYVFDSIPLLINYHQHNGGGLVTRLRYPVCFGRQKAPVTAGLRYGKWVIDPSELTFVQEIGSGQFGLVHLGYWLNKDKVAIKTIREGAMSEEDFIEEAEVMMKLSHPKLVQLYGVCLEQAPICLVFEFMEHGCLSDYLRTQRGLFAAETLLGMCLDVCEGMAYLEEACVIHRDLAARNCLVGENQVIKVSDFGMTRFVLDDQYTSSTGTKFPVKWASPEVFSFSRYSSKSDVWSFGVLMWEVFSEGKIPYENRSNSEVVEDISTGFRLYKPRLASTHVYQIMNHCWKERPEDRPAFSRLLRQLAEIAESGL
Sequence of TEC (P42680 whole entry, looked up): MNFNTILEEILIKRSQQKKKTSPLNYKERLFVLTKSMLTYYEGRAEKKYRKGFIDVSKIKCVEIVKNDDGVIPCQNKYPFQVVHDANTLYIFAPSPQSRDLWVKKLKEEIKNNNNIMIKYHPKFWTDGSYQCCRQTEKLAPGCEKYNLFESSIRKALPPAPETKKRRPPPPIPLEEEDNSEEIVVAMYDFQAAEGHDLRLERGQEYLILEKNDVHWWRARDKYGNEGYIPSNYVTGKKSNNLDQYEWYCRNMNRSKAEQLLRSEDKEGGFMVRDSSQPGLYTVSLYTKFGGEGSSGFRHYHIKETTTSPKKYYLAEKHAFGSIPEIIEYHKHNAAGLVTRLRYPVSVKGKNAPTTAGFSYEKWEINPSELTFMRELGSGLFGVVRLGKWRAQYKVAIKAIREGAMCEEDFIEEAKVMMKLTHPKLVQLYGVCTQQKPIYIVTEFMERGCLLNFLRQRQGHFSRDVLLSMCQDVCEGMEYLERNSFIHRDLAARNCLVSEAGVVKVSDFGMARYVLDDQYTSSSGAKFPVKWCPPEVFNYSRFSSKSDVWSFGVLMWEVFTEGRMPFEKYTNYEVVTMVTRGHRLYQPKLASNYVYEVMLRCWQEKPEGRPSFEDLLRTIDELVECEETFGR

Row | Compound | Btk occupancy in vivo (Btk [1]; 10 mg/kg single oral dose) | IC50 (TEC) [nM] | IC50 (ITK) [µM] | IC50 (LYN) [µM] | IC50 (LCK) [µM] | IC50 (EGFR) [nM] | IC50 (BTK [2]; read-out: BTK IC50) [nM] | IC50 (BTK [2]; read-out: BTK Inhibition) [nM] | Btk occupancy in vivo (Btk [1]; 5 mg/kg single oral dose) | IC50 (BTK [3]) [nM]
1 | CC#CC(=O)N1CCCC[C@H]1c1nc(-c2ccc(Oc3cccc(OC)c3F)cc2)c2c(C)nccn12 [Example 5, (S)-1-(2-(1-(4-(2-Fluoro-3-methoxyphenoxy)phenyl)-8-methylimidazo[1,5-a]pyrazin-3-yl)piperidin-1-yl)but-2-yn-1-one] | full occupancy |  |  |  |  |  |  |  |  | 
2 | C=CC(=O)N1CCC[C@H]1c1nc(-c2ccc(Oc3cccc(OC)c3)cc2)c2cnccn12 [Example 16, (S)-1-(2-(1-(4-(3-methoxyphenoxy)phenyl)imidazo[1,5-a]pyrazin-3-yl)pyrrolidin-1-yl)prop-2-en-1-one] |  | 100 to 1000 | 1 to 10 | > 10 | > 10 | 1000 to 10000 | < 10 | < 10 |  | 
3 | C=CC(=O)N1CCC[C@@H](c2nc(-c3ccc(Oc4cccc(OC)c4F)cc3)c3cnccn23)C1 [Example 1, (R)-1-(3-(1-(4-(2-fluoro-3-methoxyphenoxy)phenyl)imidazo[1,5-a]pyrazin-3-yl)piperidin-1-yl)prop-2-en-1-one] |  | 100 to 1000 | 1 to 10 | > 10 | > 10 | 100 to 1000 | < 10 | < 10 | full occupancy | 
4 | C=CC(=O)N1CCCC[C@H]1c1nc(-c2ccc(Oc3cccc(OC)c3F)cc2)c2c(C)nccn12 [Example 27, (S)-1-(2-(1-(4-(2-fluoro-3-methoxyphenoxy)phenyl)-8-methylimidazo[1,5-a]pyrazin-3-yl)piperidin-1-yl)prop-2-en-1-one] | full occupancy | 100 to 1000 | 1 to 10 | > 10 | > 10 | 100 to 1000 | < 10 | < 10 |  | 
5 | C=CC(=O)N1CCC[C@H]1c1nc(-c2ccc(OCc3c(F)cccc3F)cc2)c2cnccn12 [Example 136, (S)-1-(2-(1-(4-((2,6-difluorobenzyl)oxy)phenyl)imidazo[1,5-a]pyrazin-3-yl)pyrrolidin-1-yl)prop-2-en-1-one] |  | 100 to 1000 | 1 to 10 | > 10 | > 10 | 1000 to 10000 | 10 to 100 |  |  | 10 to 100
6 | C=CC(=O)N1CCC[C@H]1c1nc(-c2ccc(Oc3cccc(F)c3F)cc2)c2cnccn12 [Example 20, (S)-1-(2-(1-(4-(2,3-difluorophenoxy)phenyl)imidazo[1,5-a]pyrazin-3-yl)pyrrolidin-1-yl)prop-2-en-1-one] |  | 100 to 1000 | 1 to 10 | > 10 | > 10 | 1000 to 10000 | < 10 | < 10 |  | 
7 | C=CC(=O)N1CCC[C@H]1c1nc(-c2ccc(Oc3cccc(OC)c3F)cc2)c2cnccn12 [Example 30, (S)-1-(2-(1-(4-(2-fluoro-3-methoxyphenoxy)phenyl)imidazo[1,5-a]pyrazin-3-yl)pyrrolidin-1-yl)prop-2-en-1-one] |  | 100 to 1000 |  | > 10 | > 10 |  | < 10 | < 10 | full occupancy | 
8 | C=CC(=O)N1CCCC[C@H]1c1nc(-c2ccc(C(=O)Nc3ccccn3)cc2)c2c(C(F)(F)F)nccn12 [Example 199, (S)-4-(3-(1-acryloylpiperidin-2-yl)-8-(trifluoromethyl)imidazo[1,5-a]pyrazin-1-yl)-N-(pyridin-2-yl)benzamide] |  |  |  |  |  |  |  | > 10000 |  | 
9 | CC#CC(=O)N1CC[C@@H](c2nc(-c3ccc(Oc4cccc(OC)c4F)cc3)c3cncc(OCCC)n23)C1 [Example 96, (R)-1-(3-(1-(4-(2-fluoro-3-methoxyphenoxy)phenyl)-5-propoxyimidazo[1,5-a]pyrazin-3-yl)pyrrolidin-1-yl)but-2-yn-1-one] |  |  |  |  |  |  |  | < 10 |  | 
10 | CC#CC(=O)N1CCCC[C@H]1c1nc(-c2ccc(Oc3cccc(OC)c3F)cc2)c2c(C(F)(F)F)nccn12 [Example 122, (S)-1-(2-(1-(4-(2-fluoro-3-methoxyphenoxy)phenyl)-8-(trifluoromethyl)imidazo[1,5-a]pyrazin-3-yl)piperidin-1-yl)but-2-yn-1-one] |  |  |  |  |  |  |  | > 10000 |  | 
11 | CC#CC(=O)N1CC[C@@H](c2nc(-c3ccc(Oc4cccc(OC)c4F)cc3)c3c(C(N)=O)nccn23)C1 [Example 108, (R)-3-(1-(but-2-ynoyl)pyrrolidin-3-yl)-1-(4-(2-fluoro-3-methoxyphenoxy)phenyl)imidazo[1,5-a]pyrazine-8-carboxamide] |  |  |  |  |  |  |  | > 10000 |  | 
